From patent US20190264146A1, “An Antimicrobial Composition” (priority 2015, published 2019)

Experiments:
Assay in all cases: Microdilution test (MIC/MBC)
Format in all cases: cell-based
Settings in all cases: lower line of pair, sub-cultivation 72 h
M. flavus = test system: M. flavus
Procedure: (§1) Minimum inhibitory concentration (MIC) is the lowest concentration of an antimicrobial that will inhibit the visible growth of a microorganism after overnight incubation. Minimum inhibitory concentrations are important in diagnostic laboratories to confirm resistance of microorganisms to an antimicrobial agent and to monitor the activity of new antimicrobial agents. A MIC is the most basic laboratory measurement of the activity of an antimicrobial agent against an organism.
(§2) The minimum inhibitory and bactericidal concentrations (MICs and MBCs) can be determined using 96-well microtitre plates. The bacterial suspension is adjusted with sterile saline to a concentration of 1.0×10^5 cfu/m L. Compounds to be investigated are dissolved in broth LB medium (100 μL) with bacterial inoculum (1.0×10^4 cfu per well) to achieve the wanted concentrations (0.02-15.0 μL g/mL). The microplates are incubated for 24 h at 28° C. […] The MBCs are determined by serial sub-cultivation of 2 μL into microtitre plates containing 100 μL of broth per well and further incubation for 72 h. The lowest concentration with no visible growth is defined as the MBC, indicating 99.5% killing of the original inoculum. The optical density of each well is measured at a wavelength of 655 nm by Microplate manager 4.0 (Bio-Rad Laboratories) and compared with a blank and the positive control. Streptomycin is used as a positive control using the same concentrations as in the disc diffusion test. Two replicates were done for each oil and each component.

S. typhimurium = test system: S. typhimurium
Procedure: as §1, §2

S. enteritidis = test system: S. enteritidis
Procedure: as §1, §2

S. epidermidis = test system: S. epidermidis
Procedure: as §1, §2

P. aeruginosa = test system: P. aeruginosa
Procedure: as §1, §2

E. coli = test system: E. coli
Procedure: as §1, §2

P. mirabilis = test system: P. mirabilis
Procedure: as §1, §2

B. subtilis = test system: B. subtilis
Procedure: as §1, §2

L. monocytogenes = test system: L. monocytogenes
Procedure: as §1, §2

E. cloacae = test system: E. cloacae
Procedure: as §1, §2

S. aureus = test system: S. aureus
Procedure: as §1, §2

Work on `CC12CCC(CC1)C(C)(C)O2` [1,8 cineole (eucalyptol)] yielded an MBC (M. flavus) of 5.0 μL g/mL, an MBC (S. typhimurium) of 6.0 μL g/mL and an MBC (S. enteritidis) of 6.0 μL g/mL. It also gave an MBC (S. epidermidis) of 5.0 μL g/mL, an MBC (P. aeruginosa) of 9.0 μL g/mL and an MBC (E. coli) of 8.0 μL g/mL. The MBC (P. mirabilis) was 8.0 μL g/mL, the MBC (B. subtilis) was 5.0 μL g/mL and the MBC (L. monocytogenes) was 6.0 μL g/mL. The MBC (E. cloacae) was 8.0 μL g/mL and the MBC (S. aureus) was 6.0 μL g/mL.

`C=C(C)[C@H]1CC=C(C)CC1` [Limonene] showed an MBC (M. flavus) of 7.0 μL g/mL, an MBC (S. typhimurium) of 10.0 μL g/mL and an MBC (S. enteritidis) of 10.0 μL g/mL. For the same molecule, the MBC (S. epidermidis) was 8.0 μL g/mL, the MBC (P. aeruginosa) was 15.0 μL g/mL and the MBC (E. coli) was 12.0 μL g/mL. For the same molecule, the MBC (P. mirabilis) was 15.0 μL g/mL, the MBC (B. subtilis) was 7.0 μL g/mL and the MBC (L. monocytogenes) was 10.0 μL g/mL. The MBC (E. cloacae) was 10.0 μL g/mL and the MBC (S. aureus) was 8.0 μL g/mL.

`C=C1CCC2CC1C2(C)C` (stereo not drawn) [beta pinene] showed an MBC (M. flavus) of 5.5 μL g/mL, an MBC (S. typhimurium) of 9.0 μL g/mL and an MBC (S. enteritidis) of 9.0 μL g/mL. It also gave an MBC (S. epidermidis) of 6.5 μL g/mL, an MBC (P. aeruginosa) of 13.0 μL g/mL and an MBC (E. coli) of 10.0 μL g/mL. For the same molecule, the MBC (P. mirabilis) was 10.0 μL g/mL, the MBC (B. subtilis) was 6.0 μL g/mL and the MBC (L. monocytogenes) was 10.0 μL g/mL. The MBC (E. cloacae) was 10.0 μL g/mL and the MBC (S. aureus) was 7.5 μL g/mL.
